Patent US6656955B2, “Pharmaceutical composition having enhanced antitumor activity and/or reduced side effects, containing an antitumor agent and an hydroximic acid derivative” (priority 1997, dated 2003)

Experiments:
S-180 sarcoma = test: Tumor growth inhibition, S-180 solid tumor in mice; assay type: in vivo; conditions: single (FIG. 1) or repeated injections (FIG. 2)
Protocol: (§1) In vivo experiments with mice. Single or repeated treatments started on day 1 following transplantation of P-388 or S-180 tumor The therapeutic effectiveness was evaluated on the basis of survival time and tumor volume. The experiments were terminated after 45 days. Long-term survival of mice were not followed beyond 45 days, but the end point was on day 46 following tumor transplantation. The comparative antitumor effect of various treatment groups on the median survival time in days for treated versus control groups was expressed as T/C.
In the case of S-180 solid tumor the tumor growth inhibitory effect of compounds was controlled 3 times for a week using digital caliper. Tumor volume was calculated using the following formula: […]
where “a” and “b” are the shortest and the longest diameter, respectively of a given tumor (Tomayko M. M. and Reynolds C. P.: Determination of subcutaneous tumor size in athymic/nude/mice. Cancer Chemother. Pharmacol, 24, p. 148,1989). Mean values (X) and standard deviations (S.D.) were calculated. The statistically significant difference (p) was determined by Student' t test, where appropriate.

Wistar rats [1] = test: One month survival after two week treatment of rats; assay type: in vivo; conditions: cisplatin 50 mg/kg daily, compound L 40 mg/kg daily
Protocol: (§2) In vivo experiments with rats. […] The animals were healthy (without any tumor inoculation) at the beginning of the experiment, and the dose of the antitumor compound was provocatively/unusually high which by itself would cause tissue damage with high probability. […] During treatment, cardiac function of animals was followed by ECG, and after two weeks of treatment enzymatic activity in the blood of animals was determined.
It was investigated how many percent of animals were still alive following a two week treatment detailed above.

P-388 leukemia cells = test: Survival of mice inoculated with P-388 leukemia; assay type: in vivo, BDF1 mice; conditions: for Long term Percent survival / Long term Survivors/Total: day 45
Protocol: as §1
Treatments started 1 day after the i.p. tumor transplantation.

[2] = system: Sp-2 (mouse myeloma, suspension) cells; test: Surviving tumor cells in cell culture, trypan blue counting; assay type: cell-based; conditions: Sp-2 cells, compound L 40 microgram/ml
Protocol: Experiments with cell culture. Sp-2 (mouse myeloma, suspension) cells were plated on DMEM (Dubelso modified Eagle medium) in the presence of 10% FCS (fetal calf serum). Cells were plated on 96 hole plate with a starting cell number of 10^4/250 μl.
48 hours after treatment, i.e., addition of the above listed compounds, cells in the holes were counted in a method of staining them with 10 microliter of tripaneblue following suspension. Counting was done in B{overscore (u)}rker chamber.
In this case, one portion of cells were plated without the presence of drug, one portion of cells were plated in the presence of 13 microgram/ml fluoroacil, another portion in the presence of 13 microgram/ml fluoroacil+40 microgram/ml compound “L”. Survival rate was examined […] after treatment.

Wistar rats [3] = test: Tissue damage: intracellular enzyme release into serum of cisplatin-treated rats; assay type: in vivo, rat; conditions: after two weeks, cisplatin 50 mg/kg daily, compound L 40 mg/kg daily
Protocol: as §2
Tissue damage was evaluated by measuring intracellular release of enzymes. Enzymatic activity was determined by the method of H. U. Bergmeyer. (Methods in Enzymatic Analysis, 2nd edition, Academic Press (1974)/. The following enzymes were measured:
GOT=glutamate-oxalacetate-transaminase,
GPT=glutamate-piruvate-transaminase,
LDH=lactate dehydrogenase,
LipDH=lipoamide-dehydrogenase,
Enzymatic activity is given in mUnit/m1 serum.

Wistar rats [4] = test: Cardiac function by ECG in cisplatin-treated rats; assay type: in vivo, rat; conditions: cisplatin 50 mg/kg daily, compound L 40 mg/kg daily
Protocol: as §2
Cardiac function was monitored by AT-6 ECG on all four limbs. QRS, RR, PR and TQ distances and J point depressions were determined.

BDF1 male mice = test: Acute toxicity (survival) in normal mice; assay type: in vivo; conditions: for Survival % / Survivors/Total: 25 days observation
Protocol: In vivo experiments with mice. […] [c.f. Oncology Report (REP/O.O.I./1988/01)]. First generation hybrid BDF1 (C57B1 female×DBA/2 male) adult male mice, weighing 22-24 g, specified pathogen free (SPF) were used for these experiments. The animals were kept in macrolon cages at 22-24° C. (40-50% humidity), with a lighting regimen of 12/12 h light/dark.
The observation period was terminated after 25 days. Of compound “L” doses, the dose of 750 mg/kg body weight, i.p. was lethal (Table 4).

[5] = group 10: CisPt 10 mg/kg i.p., 1 qd
[6] = group 13: CisPt 3 mg/kg i.p., 5 qd
[7] = 48 hours, cisplatin 0.35 microgram/ml
[8] = 40 hours, fluoroacil 13 microgram/ml

## N.N.[Cl][Pt][Cl] [Cisplatin, cis-diammine-dichloroplatinum]
S-180 sarcoma
  Tumor growth inhibitory effect (tumor growth curves, mean tumor volumes): significant inhibitory effect
Wistar rats [1]
  One month survival (%): 25%
P-388 leukemia cells; [5]
  T/C %: 147.0%
  Long term Percent survival: 29%
  Long term Survivors/Total: 2/7
P-388 leukemia cells; group 10: CisPt 10 mg/kg i.p., 1 qd, non-long-term survivors (5 mice)
  Mean Survival (days): 16.6 ± 4.6 day⁻¹
P-388 leukemia cells; [6]
  T/C %: 257.0%
  Long term Percent survival: 43%
  Long term Survivors/Total: 3/7
P-388 leukemia cells; group 13: CisPt 3 mg/kg i.p., 5 qd, 4 mice
  Mean Survival (days): 29.0 ± 6.1 day⁻¹
[2]; [7]
  Surviving cell (%): 12 ± 4%
Wistar rats [3]
  Enzymatic activity CK (creatine-kinase): 9776 mU/ml
  Enzymatic activity CS (citrate-synthase): 22 mU/ml
  Enzymatic activity GOT (glutamate-oxalacetate-transaminase): 273 mU/ml
  Enzymatic activity GPT (glutamate-piruvate-transaminase): 87 mU/ml
  Enzymatic activity LDH (lactate dehydrogenase): 5136 mU/ml
  Enzymatic activity LipDH (lipoamide-dehydrogenase): 69 mU/ml
Wistar rats [4]
  J point depression: 2.1 ± 0.3 mm
  QRS: 102 ms
  QRS intensity: fluctuating

## O=c1[nH]cc(F)c(=O)[nH]1 [Fluoroacil, 5-fluoro-2,4(1H,3H)pyrimidinedione]
[2]; [8]
  Surviving cell (%): 13 ± 3%

## Cl.Cl.NC(=NOCC(O)CN1CCCCC1)c1cccnc1 (stereo not drawn) [compound “L”, O-(3-piperidino-2-hydroxyl-1-propyl)niconitic acid amidoxime dihydrochloride]
BDF1 male mice; compound L 750 mg/kg body weight, i.p.
  Toxicity evaluated on the basis of survival: lethal
BDF1 male mice; group 1: 200 mg/kg i.p., 1 qd
  Survival %: 100%
  Survivors/Total: 7/7
BDF1 male mice; group 2: 750 mg/kg i.p., 1 qd
  Survival %: 0%
  Survivors/Total: 0/7
BDF1 male mice; group 3: 2000 mg/kg p.o., 1 qd
  Survival %: 100%
  Survivors/Total: 7/7
BDF1 male mice; group 4: 100 mg/kg i.p., 5 qd
  Survival %: 100%
  Survivors/Total: 7/7
BDF1 male mice; other single compound L treatments (Table 4)
  Toxicity evaluated on the basis of survival: no effect on the survival
[2]; [8]
  Surviving cell (%): 51 ± 8%
[2]; [7]
  Surviving cell (%): 51 ± 8%
